Assay results: paper PMC8705409, “Synthesis of sp^2-Iminosugar Selenoglycolipids as Multitarget Drug Candidates with Antiproliferative, Leishmanicidal and Anti-Inflammatory Properties” (Molecules, 2021)
“Also recorded” adds a separate entry of the source. Where two headings read alike, the source gives them in different places.

Key:
[1] = system: human solid tumor cell lines A549, SW1573, HBL-100, T-47D, HeLa, WiDr; design: method as in PMID 28728108; details: same assay; read-out: GI50 of reference agent in the same assay; cited from earlier work
[2] = system: human solid tumor cell lines A549, SW1573, HBL-100, T-47D, HeLa, WiDr; test: Antiproliferative SRB assay (HTS), whole panel of six cell lines; format: cell-based; details: for GI50: Homo sapiens, range over the six tumor cell lines, read-out: GI50 against all the cell lines tested
Description: (§1) All reagents were used as purchased from commercial suppliers without further purification. The human solid tumor cell lines used in this study were: A549, SW1573 (lung), HBL-100, T-47D (breast), HeLa (cervix) and WiDr (colon). These cell lines were a kind gift from Prof. G.J. Peters (VU Medical Center, Amsterdam, The Netherlands).
(§2) Cells were inoculated onto 96-well microtiter plates in a volume of 100 μL per well at densities of 2500 (A549, HBL-100, HeLa, and SW1573) and 5000 (T-47D and WiDr) cells per well, based on their doubling times. Compounds were initially dissolved in DMSO at 400 times the desired final maximum test concentration. Control cells were exposed to an equivalent concentration of DMSO (0.25% v/v, negative control). Each agent was tested in triplicate at different dilutions in the range of 1–100 μM. The drug treatment started on day 1 after plating. Drug incubation times were 48 h, after which cells were precipitated with 25 μL ice-cold TCA (50% w/v) and fixed for 60 min at 4 °C. Then the SRB assay was performed. The optical density (OD) of each well was measured at 530 nm, using BioTek’s PowerWave XS Absorbance Microplate Reader. Values were corrected for background OD from wells only containing medium. The antiproliferative activity for each compound, expressed as GI50 values, was calculated according to NCI formulas.

[3] = system: HBL-100 (breast) human solid tumor cell line; test: Antiproliferative SRB assay (HTS), HBL-100; format: cell-based; details: 48 h
Description: as §1, §2

[4] = Cellular toxicity, MTT assay, THP-1; format: cell-based; details: human, maximal concentration 200 µM, read-out: EC50 THP-1 Cell Line (cytotoxicity)
Description: (§3) Human myelomonocytic cell line THP-1 was grown at 37 °C and 5% CO2 in RPMI-1640 supplemented with 10% iFBS, 2 mM […], 100 U/mL penicillin and 100 μg/mL streptomycin. 3 × 10^4 cells/well in 96-well plates were differentiated to macrophages with 20 ng/mL of PMA treatment for 48 h followed by 24 h of culture in fresh medium. MRC5 cells were grown at 37 °C and 5% CO2 in DMEM complete media. 4000 cells/well in 96-well plates were incubated for 24 h at 37 °C and 5% CO2.
(§4) Cellular toxicity of all compounds was determined using the colorimetric MTT-based assay after incubation at 37 °C for 72 h in the presence of increasing concentrations of compounds (final maximal concentrations 200 µM). The results are expressed as EC50 values, as the concentration of the compound that reduce cell growth by 50% versus untreated control cells. Assays were performed in triplicate.

[5] = system: A549 (lung) human solid tumor cell line; test: Antiproliferative SRB assay (HTS), A549; format: cell-based; details: 48 h
Description: as §1, §2

[6] = system: intracellular amastigotes of Leishmania donovani HU3; test: Susceptibility of intracellular Leishmania amastigotes (luciferase) in THP-1 macrophages; format: cell-based; details: L. donovani HU3 in macrophage-differentiated THP-1, 72 h, threshold 20 μM
Description: Macrophage-differentiated-THP-1 cells, which are considered a suitable model for human macrophages, were plated at a density of 3 × 10^4 macrophages/well in 96-well white polystyrene microplates, and were infected at a macrophage/parasite ratio of 1:10 with L. donovani HU3 promastigotes. 24 h after infection at 35 °C and 5% CO2, extracellular parasites were removed by washing with serum-free medium. Infected cell cultures were then incubated at different compound concentrations in RPMI 1640 medium plus 10% iFBS at 37 °C with 5% CO2 for 72 h. To determine the susceptibility of L. donovani-LUC amastigotes, infected macrophages maintained in 96-well plates were lysed and then luminescence intensity was measured as indicative of the intracellular parasite growth, using the Luciferase Assay System Kit (Promega, Madison, WI, USA) according to the instructions of the supplier.

[7] = system: HeLa (cervix) human solid tumor cell line; test: Antiproliferative SRB assay (HTS), HeLa; format: cell-based; details: 48 h
Description: as §1, §2

[8] = system: WiDr (colon) human solid tumor cell line; test: Antiproliferative SRB assay (HTS), WiDr; format: cell-based; details: 48 h
Description: as §1, §2

[9] = system: SW1573 (lung) human solid tumor cell line; test: Antiproliferative SRB assay (HTS), SW1573; format: cell-based; details: 48 h
Description: as §1, §2

[10] = system: T-47D (breast) human solid tumor cell line; test: Antiproliferative SRB assay (HTS), T-47D; format: cell-based; details: T47D, 48 h
Description: as §1, §2

[11] = Cellular toxicity, MTT assay, MRC-5; format: cell-based; details: human, maximal concentration 200 µM, read-out: EC50 MRC-5 Cell Line (cytotoxicity)
Description: as §3, §4

[12] = system: Bv.2 microglia cells; test: Cellular viability by crystal violet staining; format: cell-based, mouse; details: Bv.2 cells, 24 h, different concentrations
Description: (§5) Mouse microglia Bv.2 cell line was supplied by Dr. M.L. Nieto (IBGM, Valladolid, Spain). Bv.2 cells were cultured at 37 °C in a humidified atmosphere with 5% CO2 in RPMI supplemented with 10% (v/v) heat-inactivated FBS, 1% (v/v) penicillin/streptomycin (Sigma) and 2 mM L-glutamine (Gibco, Carlsbad, CA, USA). Cells were grown up to 70% confluence and then washed twice with PBS and further cultured in serum-free medium and stimulated with LPS (200 ng/mL) with or without 14/10 (0.1–50 µM) for 24 h.
After cell treatments, the medium was discarded, and the remaining viable adherent cells were stained with crystal violet (0.2% w/v in 2% ethanol) for 20 min. After this time, plates were rinsed with tap water and allowed to dry, and 1% SDS was added to solubilize them. The absorbance of each plate was read spectrophotometrically at 560 nm.

[13] = system: arginase-1 expression in Bv.2 microglial cells; test: Arginase-1 levels (Western blot); format: cell-based, mouse; details: Bv.2 cells, absence or presence of LPS 200 ng/mL; 10 at 10 μM, 14 at 50 μM
Description: as §5
(§6) Bv.2 microglial cells were homogenized in lysis buffer containing 50 mM Tris-HCl, pH 7.4, 150 mM NaCl, 1 mM Na3VO4, 1 mM NaF, 1 mM EGTA, […] and 0.25% (w/v) sodium deoxycholate, supplemented with protease inhibitors (10 µg/mL leupeptin, 10 µg/mL aprotinin, and 100 µg/mL phenylmethylsulphonyl fluoride). All debris was removed by centrifugation at 14,000× g for 10 min at 4 °C and protein concentration was quantified using the Bio-Rad protein assay with BSA as a standard. Equivalent amounts of protein were resolved using denaturing sodium dodecyl sulphate-polyacrylamide gel electrophoresis (SDS-PAGE), followed by transfer to PVDF membranes (Bio-Rad). […]
(§7) Densitometry of the Western blots was performed using the ImageJ program. […] Data were analyzed by one-way ANOVA followed by Bonferroni t-test or by paired t-test when comparisons were among two groups. […]

[14] = system: iNOS expression in Bv.2 microglial cells; test: LPS-induced iNOS protein expression (Western blot); format: cell-based, mouse; details: Bv.2 cells, LPS 200 ng/mL
Description: as §5, §6, §7

[15] = system: nitrite production in Bv.2 microglial cells; test: Nitrite production in LPS-stimulated Bv.2 cells (Griess method); format: cell-based, mouse; details: LPS 200 ng/mL, 24 h
Description: as §5
Nitrite levels were measured by using the Griess method. Briefly, nitrites turn into a pink compound in contact with an acid solution containing 1% sulphanilamide and 0.1% N-(1-naphthyl)ethylenediamine (NEDA), and can be quantified by a colorimetric method at 540 nm in a microplate reader (Versamax Tunable Microplate reader, Molecular Devices, Sunnyvaley, CA, USA).

[16] = THP-1 cells differentiated to macrophages with PMA

O=c1[nH]cc(F)c(=O)[nH]1 [Compound 5-FU, 5-fluorouracyl]
GI50 [1]: 5 to 50 µM

O=C1OC[C@@H]2[C@@H](O)[C@H](O)[C@@H](O)[C@@H]([Se]c3ccccc3)N12 [Compound 8, (1R)-1-Phenylseleno-5N,6O-oxomethylidenenojirimycin]
antiproliferative activity ([2]; panel of six tumor cell lines): lack of activity; also recorded: inactive | GI50 [3]: > 100 µM | EC50 at 72 h [4]: > 200 µM | GI50 [5]: > 100 µM | EC50 [6]: > 20 µM | GI50 [7]: > 100 µM | GI50 [8]: > 100 µM | GI50 [9]: > 100 µM | GI50 [10]: > 100 µM | EC50 at 72 h [11]: 172 ± 27 µM

CCCCCCCC[Se][C@@H]1[C@H](O)[C@@H](O)[C@H](O)[C@H]2COC(=O)N21 [Compound 9, (1R)-1-Octylseleno-5N,6O-oxomethylidenenojirimycin]
GI50 [2]: ≥ 36 µM | GI50 [3]: > 100 µM | EC50 at 72 h [4]: > 200 µM | GI50 [5]: 36 µM | EC50 [6]: > 20 µM | GI50 [7]: 49 µM | GI50 [8]: 64 µM | GI50 [9]: > 100 µM | GI50 [10]: 71 µM | EC50 at 72 h [11]: 94.3 ± 4.95 µM

CCCCCCCCCCCC[Se][C@@H]1[C@H](O)[C@@H](O)[C@H](O)[C@H]2COC(=O)N21 [Compound 10, (1R)-1-Dodecylseleno-5N,6O-oxomethylidenenojirimycin]
GI50 [2]: 16 to 28 µM | GI50 [3]: 24 µM | effect on cellular viability [12]: none of the concentrations used induced a negative effect | EC50 at 72 h [4]: 84.25 ± 0.06 µM | induction of arginase-1 [13]: direct effect on the induction of arginase-1 | GI50 [5]: 18 µM | EC50 [6]: 13.4 ± 1.63 µM | GI50 [7]: 22 µM | effect on LPS-elicited enhancement of iNOS ([14]; compound at 10 μM): fully abrogated | concentration at which nitrite production reached basal level [15]: 10 µM | GI50 [8]: 22 µM | GI50 [9]: 28 µM | GI50 [10]: 21 µM | EC50 at 72 h [11]: 31.2 ± 1.61 µM

CCCCCCCCN[C@@H]1[C@H](O)[C@@H](O)[C@H](O)[C@H]2COC(=O)N21 [Compound 11, (1S)-1-amino-N-octyl-5N,6O-oxomethylidene-1-deoxynojirimycin]
GI50 [2]: > 100 µM | GI50 [3]: > 100 µM | EC50 at 72 h [4, 16]: 209 ± 10.3 µM | GI50 [5]: > 100 µM | EC50 [6]: > 20 µM | GI50 [7]: > 100 µM | GI50 [8]: > 100 µM | GI50 [9]: > 100 µM | GI50 [10]: > 100 µM | EC50 at 72 h ([11]; MRC-5 cells): 155 ± 5.3 µM

CCCCCCCCCCCCN[C@@H]1[C@H](O)[C@@H](O)[C@H](O)[C@H]2COC(=O)N21 [Compound 12, (1S)-1-Amino-N-dodecyl-5N,6O-oxomethylidene-1-deoxynojirimycin]
GI50 [2]: 18 to 30 µM | GI50 [3]: 23 µM | EC50 at 72 h [4, 16]: 122 ± 13.3 µM | GI50 [5]: 18 µM | EC50 [6]: > 20 µM | GI50 [7]: 23 µM | GI50 [8]: 22 µM | GI50 [9]: 30 µM | GI50 [10]: 23 µM | EC50 at 72 h ([11]; MRC-5 cells): 49.6 ± 4.2 µM

CCCCCCCCS[C@@H]1[C@H](O)[C@@H](O)[C@H](O)[C@H]2COC(=O)N21 [Compound 13, (1R)-1-octylthio-5N,6O-oxomethylidenenojirimycin]
GI50 [2]: ≥ 36 µM | GI50 [3]: 73 µM | EC50 at 72 h [4, 16]: 122 ± 5.79 µM | GI50 [5]: 58 µM | EC50 [6]: > 20 µM | GI50 [7]: 92 µM | GI50 [8]: 89 µM | GI50 [9]: > 100 µM | GI50 [10]: 95 µM | EC50 at 72 h ([11]; MRC-5 cells): 58.1 ± 12.6 µM

CCCCCCCCCCCCS[C@@H]1[C@H](O)[C@@H](O)[C@H](O)[C@H]2COC(=O)N21 [Compound 14, (1R)-1-dodecylthio-5N,6O-oxomethylidenenojirimycin]
GI50 [2]: 16 to 28 µM | GI50 [3]: 17 µM | effect on cellular viability [12]: none of the concentrations used induced a negative effect | EC50 at 72 h [4, 16]: 70.5 ± 3.75 µM | induction of arginase-1 [13]: did not induce arginase-1 expression | GI50 [5]: 16 µM | EC50 [6]: > 20 µM | GI50 [7]: 17 µM | iNOS increase remaining after treatment (LPS alone 20-fold) ([14]; compound at 50 μM (five-fold higher concentration)): about 8 fold | concentration at which nitrite production reached basal level [15]: 50 µM | GI50 [8]: 18 µM | GI50 [9]: 18 µM | GI50 [10]: 18 µM | EC50 at 72 h ([11]; MRC-5 cells): 43.1 ± 9.83 µM

CCCCCCCCCCCCCCCCOP(=O)([O-])OCC[N+](C)(C)C [Miltefosine, reference compound]
EC50 at 72 h [4, 16]: 26.9 ± 3.08 µM | EC50 [6]: 0.44 ± 0.08 µM | EC50 at 72 h ([11]; MRC-5 cells): 57.6 ± 6.38 µM
